According to ChEMBL document CHEMBL3853264 (Medchemcomm, 2016):

Tests used:
[1] = target: T1, Solute carrier family 22 member 12 (Homo sapiens, UniProt Q96S37); assay: Inhibition of URAT1 (unknown origin)
T1 sequence (Q96S37 whole entry): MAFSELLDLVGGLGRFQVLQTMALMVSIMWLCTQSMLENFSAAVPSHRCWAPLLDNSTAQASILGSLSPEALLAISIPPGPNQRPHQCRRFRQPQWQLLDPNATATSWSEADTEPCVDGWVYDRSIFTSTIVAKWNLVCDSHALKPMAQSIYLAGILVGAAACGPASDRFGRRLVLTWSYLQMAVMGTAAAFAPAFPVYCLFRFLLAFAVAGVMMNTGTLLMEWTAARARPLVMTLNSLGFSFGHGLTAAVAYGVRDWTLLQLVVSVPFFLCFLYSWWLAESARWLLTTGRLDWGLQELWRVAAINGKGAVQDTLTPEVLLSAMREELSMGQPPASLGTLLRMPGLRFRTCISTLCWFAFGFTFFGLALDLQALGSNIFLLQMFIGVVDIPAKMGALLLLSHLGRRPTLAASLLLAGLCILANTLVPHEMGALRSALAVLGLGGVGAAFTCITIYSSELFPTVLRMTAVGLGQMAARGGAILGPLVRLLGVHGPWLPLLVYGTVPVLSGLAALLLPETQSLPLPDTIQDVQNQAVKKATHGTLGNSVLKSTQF

[2] = target: T1, Solute carrier family 22 member 12; assay: Inhibition of human C-terminal eGFP-tagged URAT1 long isoform expressed in CHO cells assessed as decrease in [14C]-uric acid uptake preincubated for 15 mins followed by [14C]-uric acid addition and incubated in dark for 3 hrs by scintillation counting method; type: cell-based

Structure (SMILES) | IC50 [1] | IC50 [2]
CC(C)(Oc1ccc(C(=O)c2ccc(Cl)cc2)cc1)C(=O)O [FENOFIBRIC ACID] | 11 µM | 
N#Cc1ccc(Oc2ccc(S(=O)(=O)Nc3ccncn3)cc2C#N)cc1Cl |  | 5.15 µM
